Experimental data taken from ChEMBL document CHEMBL5620360, “Design, synthesis and biological evaluation of 4-(4-aminophenoxy)picolinamide derivatives as potential antitumor agents” (Eur J Med Chem, 2023).
Calls of active or inactive are those of the source. The rule behind the calls is not given here.

Tests used:
[1] = Half life in Sprague-Dawley rat at 10 mg/kg, po by LC-MS/MS analysis; assay type: ADME, organism-based; settings: in vivo
A549 [2] = experiment: Induction of apoptosis in human A549 cells assessed as late apoptotic cells at […] measured after 24 hrs by AnnexinV-FITC/PI staining based flow cytometry (reference value: 1.47%); assay type: functional; settings: dose 2.5 µM
A549 [3] = experiment: Induction of cell cycle arrest in human A549 cells assessed as accumulation of cells at S phase at […] incubated for 24 hrs by propidium iodide staining based flow cytometry (reference value: 38.18%); assay type: functional; settings: dose 2.5 µM
A549 [4] = experiment: Induction of apoptosis in human A549 cells assessed as viable cells at […] measured after 24 hrs by AnnexinV-FITC/PI staining based flow cytometry (reference value: 93.25%); assay type: functional; settings: dose 2.5 µM, read-out: Activity
A549 [5] = experiment: Induction of cell cycle arrest in human A549 cells assessed as accumulation of cells at S phase at 10 uM incubated for 24 hrs by propidium iodide staining based flow cytometry (reference value: 38.18%); assay type: functional
A549 [6] = experiment: Induction of morphological changes in human A549 cells assessed as reduction in cell number at 1.1 uM measured after 12 hrs by acridine orange staining based fluorescence microscopy; assay type: functional
A549 [7] = experiment: Induction of apoptosis in human A549 cells assessed as necrotic cells at 10 uM measured after 24 hrs by AnnexinV-FITC/PI staining based flow cytometry (reference value: 4.01%); assay type: functional
A549 [8] = experiment: Induction of apoptosis in human A549 cells assessed as viable cells at 10 uM measured after 24 hrs by AnnexinV-FITC/PI staining based flow cytometry (reference value: 93.25%); assay type: functional; settings: read-out: Activity
A549 [9] = experiment: Induction of morphological changes in human A549 cells assessed as nucleus division and dispersion at 1.1 uM measured after 12 hrs by acridine orange staining based fluorescence microscopy; assay type: functional, cell-based
A549 [10] = experiment: cells; settings: Homo sapiens, A549, 72 h
[11] = AUC(0 to t) in Sprague-Dawley rat at 10 mg/kg, po by LC-MS/MS analysis; assay type: ADME, organism-based; settings: in vivo
MCF7 = experiment: cells; settings: Homo sapiens, MCF7, 72 h
[12] = Cmax in Sprague-Dawley rat at 1 mg/kg, iv by LC-MS/MS analysis; assay type: ADME, organism-based; settings: in vivo
A549 [13] = experiment: Potency index, ratio of cabozantinib IC50 to test compound IC50 for antiproliferative activity against human A549 cells; assay type: functional
A549 [14] = experiment: Induction of apoptosis in human A549 cells assessed as early apoptotic cells at 5 uM measured after 24 hrs by AnnexinV-FITC/PI staining based flow cytometry (reference value: 1.26%); assay type: functional

half-life [1]: 4.5 h
IC50 (A549 [10]): 0.26 µM
AUC(0-t) [11]: 3320 ng·h/mL
IC50 (MCF7): 2.35 µM
Cmax [12]: 1630 ng/mL
SMILES: O=C(NCCCN1CCOCC1)c1cc(Oc2ccc(NC(=O)c3cn(-c4ccc(F)c(Cl)c4)c4ncccc4c3=O)cc2F)ccn1
Activity (A549 [2]): 2.02%
Activity (A549 [3]): 35.16%
viability at […] (A549 [4]): 93.1%
Activity (A549 [5]): 28.68%
Activity (A549 [6]): Active
Activity (A549 [7]): 11.9%
viability at 10 µM (A549 [8]): 74.3%
Activity (A549 [9]): Active
Ratio IC50 (A549 [13]): 2.4
Activity (A549 [14]): 3.02%
